The assay has as its target PKBα (Homo sapiens, UniProt P31749). Description: PKB kinase assay (P33-labeled ATP, peptide substrate, filter plate). It counts as biochemical. Particulars: PKBα enzyme (full length or kinase domain with pleckstrin domain deleted). An excerpt:
The kinase assay for evaluating PKB activity comprises active PKB enzymes, a PKB specific substrate, and P^33-labeled ATP. […] The phosphorylated substrate was captured by a phosphocellulose membrane filter plate (MLLIPORE) and measured by a Wallac Microbeta liquid scintillation counter (Perkin Elmer).

Sequence of PKBα (P31749 118-480 limits assumed): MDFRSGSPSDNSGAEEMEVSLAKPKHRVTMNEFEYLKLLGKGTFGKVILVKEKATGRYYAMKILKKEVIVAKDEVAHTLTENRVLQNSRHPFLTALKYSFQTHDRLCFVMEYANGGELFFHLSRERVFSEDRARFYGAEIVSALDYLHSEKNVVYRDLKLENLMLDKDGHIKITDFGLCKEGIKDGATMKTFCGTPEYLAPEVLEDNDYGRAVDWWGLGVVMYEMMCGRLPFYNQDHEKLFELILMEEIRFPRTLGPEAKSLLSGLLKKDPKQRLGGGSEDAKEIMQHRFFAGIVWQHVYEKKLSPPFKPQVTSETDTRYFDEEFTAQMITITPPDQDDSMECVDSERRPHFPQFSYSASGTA

For orientation: IC50 means the concentration that gives 50% inhibition. Low values mean greater potency in that assay, high ones weaker potency in that assay. For `C[C@H](Nc1ncc(-c2ccc3cnccc3c2)s1)[C@@H](N)Cc1ccc(C(F)(F)F)cc1` [Example 235, N-((2S,3S)-3-amino-4-(4-(trifluoromethyl)phenyl)butan-2-yl)-5-(isoquinolin-6-yl)thiazol-2-amine], the IC50 lay in the range of 50 to 1000 nM.
With `COc1cc(C[C@H](N)CNc2ncc(-c3ccc4[nH]c(=O)oc4c3)s2)ccc1C(F)(F)F` [Example 207, 6-(2-((S)-2-amino-3-(3-methoxy-4-(trifluoromethyl)phenyl)propylamino)thiazol-5-yl)benzo[d]oxazol-2(3H)-one] the figure was under 50 nM; with `N[C@H](CNc1ncc(-c2nc3ccncc3s2)s1)Cc1cccc(C(F)(F)F)c1` [Example 31, N—((S)-2-amino-3-(3-(trifluoromethyl)phenyl)propyl)-5-(thiazolo[5,4-c]pyridin-2-yl)thiazol-2-amine], 1000 to 10000 nM.
The figure for `N[C@H](CNc1nc(C2CCCO2)c(-c2ccc3cnccc3c2)s1)Cc1ccc(C(F)(F)F)cc1` (stereo partly drawn) [Example 198, N—((S)-2-Amino-3-(4-(trifluoromethyl)phenyl)propyl)-5-(isoquinolin-6-yl)-4-(tetrahydrofuran-2-yl)thiazol-2-amine] is under 50 nM; for `N[C@H](CNc1ncc(-c2ccc3[nH]c(=O)oc3c2)s1)Cc1ccc(C(F)(F)F)c(F)c1` [Example 183, 6-(2-((S)-2-amino-3-(3-fluoro-4-(trifluoromethyl)phenyl)propylamino)thiazol-5-yl)benzo[d]oxazol-2(3H)-one] it is under 50 nM.
Take `NC(CNc1ncc(-c2ccc3[nH]c(=O)oc3c2)s1)Cc1ccc(OC(F)(F)F)cc1` (stereo not drawn) [Example 187, 6-(2-(-2-amino-3-(4-(trifluoromethoxy)phenyl)propylamino)thiazol-5-yl)benzo[d]oxazol-2(3H)-one]: the concentration for half-maximal inhibition (IC50) fell in the range of 50 to 1000 nM.
The figure for `CC(=O)N[C@H](CNc1ncc(-c2ccc3c(c2)CC(=O)N3)s1)Cc1ccc(C(F)(F)F)cc1` [Example 128, N—((S)-1-(5-(2-Oxoindolin-5-yl)thiazol-2-ylamino)-3-(4-(trifluoro-methyl)phenyl)propan-2-yl)acetamide] is 1000 to 10000 nM.
`N[C@H](CNc1ncc(-c2ccc3cnccc3c2)s1)Cc1c[nH]c2ccccc12` [Example 5, N—((S)-2-amino-3-(1H-indol-3-yl)propyl)-5-(isoquinolin-6-yl)thiazol-2-amine] had an IC50 of 50 to 1000 nM.
Take `N[C@H](CNc1ncc(-c2cc3c(cc2F)NC(=O)C3)s1)Cc1ccc(C(F)(F)F)nc1` [Example 215, 5-(2-((S)-2-amino-3-(6-(trifluoromethyl)pyridin-3-yl)propylamino)thiazol-5-yl)-6-fluoroindolin-2-one]: the IC50 is 50 to 1000 nM.
`N[C@H](CNc1ncc(-c2ccc3cnccc3c2)s1)Cc1ccc(C(F)(F)F)cc1` [Example 6, N—((S)-2-amino-3-(4-(trifluoromethyl)phenyl)propyl)-5-(isoquinolin-6-yl)thiazol-2-amine] had a 50% inhibitory concentration (IC50) of under 50 nM.
Take `N[C@H](CNc1nc(CCO)c(-c2ccc3cnccc3c2)s1)Cc1ccc(C(F)(F)F)cc1` [Example 255, 2-(2-((S)-2-amino-3-(4-(trifluoromethyl)phenyl)propylamino)-5-(isoquinolin-6-yl)thiazol-4-yl)ethanol]: the concentration for half-maximal inhibition (IC50) fell in the range of 50 to 1000 nM.
`N[C@H](CNc1ncc(-c2ccc3[nH]c(=O)oc3c2)s1)Cc1ccc(C(F)(F)F)c(O)c1` [Example 210] displayed an IC50 of under 50 nM.
With `Cc1nc(NC[C@@H](N)Cc2ccccc2)sc1-c1ccc2[nH]nc(C)c2c1` [Example 7, N—((S)-2-amino-3-phenylpropyl)-4-methyl-5-(3-methyl-1H-indazol-5-yl)thiazol-2-amine] the figure was 1000 to 10000 nM; with `Cc1n[nH]c2ccc(-c3sc(NC[C@@H](N)Cc4ccc(C(F)(F)F)cc4)nc3CO)cc12` [Example 11, (2-((S)-2-amino-3-(4-(trifluoromethyl)phenyl)propylamino)-5-(3-methyl-1H-indazol-5-yl)thiazol-4-yl)methanol], under 50 nM.
Take `COC(=O)c1nc(NC[C@@H](N)Cc2ccc(C(F)(F)F)cc2)sc1-c1ccc2c(c1)CC(=O)N2` [Example 122, Methyl 2-((S)-2-amino-3-(4-(trifluoromethyl)phenyl)propylamino)-5-(2-oxoindolin-5-yl)thiazole-4-carboxylate]: the IC50 fell in the range of 50 to 1000 nM.
